Assay results from US10485739B2, “High strength microcapsules” (ENCAPSYS, LLC, priority 2014, dated 2019).
In brackets after ≈: the same amount, converted by molar mass.

Legend:
[1] = Monomer solubility in water (GC/MS of water phase); type: physicochemical; conditions: @ 25° C., monomer equilibrated with deionized water 24 hours; for solubility at 24 h: thermodynamic from solid
Description: Monomer Solubility in Water
Solubility of the monomers in water is determined by combining 5 g of monomer and 5 g of deionized water in a sealed 20 ml vial for 30 min, after which the sample is allowed to sit at room temperature for 24 hours to establish equilibrium and phase separation of monomer from water. The water phase was then removed and analyzed to determine the monomer concentration GC/MS (7890B GC with a 5977A MSD Mass Spectrophotometer), both from Agilent. Inlet temperature at 270 C. Ramp starting at 100° C. to 320° C. at 10 degrees per min. The mass spec was scanning from a molecular weight of 30-500. The GC column was a Agilent DB-SMS 30M×0.250 mm.

[2] = temperature at which initiator has 10 hour half-life; cited from earlier work

Molecule	Solubility in water [1]	10 hour ½ life temperature [2]	further results
Polyethylene glycol 200 diacrylate [SR259]	40.68 g/L		
C=CC(=O)OCCOCCOCC [SR256, 2-(2-ethoxyethoxy) ethyl acrylate]	25.33 g/L (≈ 135 mM)		
C=CC(=O)OCC(COC(=O)C=C)(COC(=O)C=C)COC(=O)C=C [SR295, PENTAERYTHRITOL TETRAACRYLATE]			solubility at 24 h [1]: 4230 µg/mL (≈ 12 mM)
Polyethylene glycol 400 diacrylate [SR344]	soluble		
C=C(C)C(=O)OCCOC(=O)C(=C)C [SR206, Ethylene glycol dimethacrylate]			solubility at 24 h [1]: 2400 µg/mL (≈ 12.1 mM)
CCC(C)(C#N)N=NC(C)(C#N)CC (centres unmarked) [Vazo-67, 2,2′-azobis(2-methylbutyronitrile)]		10 hour ½ life at 67 °C	
CC(C)(N=NC(C)(C)C(=N)N)C(=N)N.Cl [Sample V-50, 2,2′-azobis(2-amidinopropane) hydrochloride]		10 hour ½ life at 56 °C	
C=CC(=O)OCC(C)(C)COC(=O)C=C [SR247, Neopentyl glycol diacrylate]			solubility at 24 h [1]: 940 µg/mL (≈ 4.43 mM)
N#CC1(N=NC2(C#N)CCCCC2)CCCCC1 [Vazo-88, 1,1′-Azobis(cyclohexanecarbonitrile)]		10 hour ½ life at 88 °C	
CC(C)(N=NC(C)(C)C(=O)NCCO)C(=O)NCCO [VA-086, 2,2′-Azobis[2-methyl-N-(2-hydroxyethyl)propionamide]]		10 hour ½ life at 86 °C	
polyethylene glycol (600) diacrylate [SR610]	soluble		
